Measured values: ChEMBL document CHEMBL4257539, “Identification of potent catalytic inhibitors of human DNA topoisomerase II by structure-based virtual screening” (Medchemcomm, 2018)
pIC50: −log10 of the molar value. Calls of active or inactive are those of the source. The calls are words filed in the database; no cut-off is given here.

Key:
HCT-116 [1] = system: HCT-116
Description: (§1) Antiproliferative activity against human HCT116 cells after 72 hrs by MTT assay

ZR-75-30 = assay: Antiproliferative activity against human ZR-7530 cells after 72 hrs by MTT assay; format: functional, cell-based; settings: for IC50: zr-75-30; for pIC50: Homo sapiens, ZR-75-30, 72 h, read-out: IC50
A549 [2] = system: A549
Description: (§2) Antiproliferative activity against human A549 cells after 72 hrs by MTT assay

Homo sapiens [3] = species: Homo sapiens; assay: Inhibition of human topoisomerase-2 assessed as reduction in relaxation of supercoiled pBR322 DNA at 100 uM after 30 mins by ethidium bromide staining based agarose gel electrophoresis method
A549 [4] = assay: cells; settings: Homo sapiens, A549, 72 h
Description: as §2

HCT-116 [5] = assay: cells; settings: Homo sapiens, HCT-116, 72 h
Description: as §1

[6] = Inhibition of human topoisomerase-2 assessed as reduction in relaxation of supercoiled pBR322 DNA after 30 mins by ethidium bromide staining based agarose gel electrophoresis method
Homo sapiens [7] = species: Homo sapiens; assay: Inhibition of human topoisomerase-2 assessed as reduction in relaxation of supercoiled pBR322 DNA at 50 uM after 30 mins by ethidium bromide staining based agarose gel electrophoresis method

IC50 (HCT-116 [1]) | IC50 (A549 [2]) | inhibition (Homo sapiens [3]) | pIC50 (A549 [4]) | pIC50 (HCT-116 [5]) | pIC50 [6] | SMILES | IC50 (ZR-75-30) | pIC50 (ZR-75-30) | inhibition (Homo sapiens [7])
– | – | Active | 5.92 | 6.00 | – | COc1ccc(C(=O)Cn2c(=N)n(Cc3ccc(C)cc3)c3ccccc32)cc1 | – | 5.92 | –
– | – | Active | 4.43 | 5.00 | – | COc1ccc(-c2cc(-c3ccccc3)c(C#N)c(SCC(=O)O)n2)cc1 | – | 4.85 | –
Not Active | Not Active | Active | – | – | – | O=C(O)c1ccc2c(c1)C(=O)N(c1ccc(C(=O)OCC(=O)c3ccccc3)cc1)C2=O | Not Active | – | –
Not Active | Not Active | Active | – | – | – | N#Cc1c(-c2ccc(F)cc2)cc(-c2ccccc2)nc1SCC(=O)NCC(=O)O | Not Active | – | –
– | Not Active | Active | – | 4.27 | – | O=C(O)COc1ccc(/C=N/n2c(COc3ccccc3)nc3ccccc3c2=O)cc1 | – | 4.24 | –
Not Active | Not Active | – | – | – | – | O=C(O)CCSc1nnc(-c2cccnc2)n1CCc1ccccc1 | Not Active | – | –
Not Active | Not Active | Active | – | – | 4.39 | Cc1cc(C(=O)O)ccc1-c1ccc(/C=c2/sc3nc4ccccc4n3c2=O)o1 | Not Active | – | –

The remaining lines, values behind:

SMILES | IC50 (HCT-116 [1]) | IC50 (A549 [2]) | inhibition (Homo sapiens [3]) | pIC50 (A549 [4]) | pIC50 (HCT-116 [5]) | pIC50 [6] | IC50 (ZR-75-30) | pIC50 (ZR-75-30) | inhibition (Homo sapiens [7])
NS(=O)(=O)c1ccc(NC(=O)CSc2nnc3ccc4ccccc4n23)cc1 | Not Active | Not Active | – | – | – | – | Not Active | – | –
CC(C)(O)C#Cc1cc(C(=O)NCCc2ccc(S(N)(=O)=O)cc2)c2oc(C(C)(C)O)cc2c1 | Not Active | Not Active | Active | – | – | 3.46 | – | 4.21 | –
C=CCn1c(CN2c3ccccc3Sc3ccccc32)nnc1SCC(=O)O | – | Not Active | – | – | 4.49 | – | – | 4.82 | –
O=C(O)CCc1nn2c3ccccc3n(Cc3ccccc3)c2nc1=O | Not Active | Not Active | Active | – | – | – | Not Active | – | –
COc1cc([C@@H]2c3cc4c(cc3[C@@H](O[C@@H]3O[C@@H]5CO[C@@H](C)O[C@H]5[C@H](O)[C@H]3O)[C@H]3COC(=O)[C@H]23)OCO4)cc(OC)c1O [ETOPOSIDE] | – | – | Active | 4.17 | 5.96 | 3.74 | – | 5.82 | inactive
